Values of other authors as cited in patent US7160886B2, “Acylated piperazine derivatives as melanocortin-4 receptor agonists” (Merck & Co., Inc., priority 2003, dated 2007).

Tested on: men with erectile dysfunction
Settings: for duration of effect / onset of action: after an oral dose; for patients in whom effective / adequate response: oral

Row | SMILES | duration of effect | onset of action [min] | patients in whom effective / adequate response
1 | Cc1ccc(N(CC2=NCCN2)c2cccc(O)c2)cc1 [phentolamine] | 2 h | 5 to 30 | 35–40%
2 | CCCc1nn(C)c2c(=O)[nH]c(-c3cc(S(=O)(=O)N4CCN(C)CC4)ccc3OCC)nc12 [sildenafil] | about 4 hours | 30 to 60 | about 70%
